The target in one test is T1, IKZF1 (Homo sapiens, UniProt Q13422+Q96SW2).
T1 construct: expressed in transfected cells
The test is described as follows: HEK293 HiBiT in vitro degradation of IKZF1. It counts as cell-based. Conditions: for Dmax: HEK293, HEK293 HiBiT; for DC50: 18-24 hr incubation, normalized to DMSO control, read-out: IKZF1 EC50. A digest of the protocol:
(§1)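 Cellular target level is measured as luminescence from an 11-residue HiBiT tag fused via a linker to the C-terminus of IKZF1, IKZF2 or SALL4 in stable Flp-In T-REx HEK293 pools. Reporter expression is induced overnight with doxycycline ([…] final), and compounds act for 18-24 h before lytic detection.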

The target of the next test is IKZF2 (Homo sapiens, UniProt Q96SW2+Q9UKS7). The test is described as follows: HEK293 HiBiT in vitro degradation of IKZF2. The settings on record: for Dmax: HEK293, HEK293 HiBiT; for Dmax / IKZF2 Dmax: maximum degradation at the highest concentration tested; for DC50 / IKZF2 Dmax: HEK293 HiBiT; for DC50: 18-24 hr incubation, normalized to DMSO control, read-out: IKZF2 EC50. It counts as cell-based. Details: expressed in transfected cells. A digest of the protocol: as §1
Chain of IKZF2 (Q9UKS7 1-500 isoform Q9UKS7-2): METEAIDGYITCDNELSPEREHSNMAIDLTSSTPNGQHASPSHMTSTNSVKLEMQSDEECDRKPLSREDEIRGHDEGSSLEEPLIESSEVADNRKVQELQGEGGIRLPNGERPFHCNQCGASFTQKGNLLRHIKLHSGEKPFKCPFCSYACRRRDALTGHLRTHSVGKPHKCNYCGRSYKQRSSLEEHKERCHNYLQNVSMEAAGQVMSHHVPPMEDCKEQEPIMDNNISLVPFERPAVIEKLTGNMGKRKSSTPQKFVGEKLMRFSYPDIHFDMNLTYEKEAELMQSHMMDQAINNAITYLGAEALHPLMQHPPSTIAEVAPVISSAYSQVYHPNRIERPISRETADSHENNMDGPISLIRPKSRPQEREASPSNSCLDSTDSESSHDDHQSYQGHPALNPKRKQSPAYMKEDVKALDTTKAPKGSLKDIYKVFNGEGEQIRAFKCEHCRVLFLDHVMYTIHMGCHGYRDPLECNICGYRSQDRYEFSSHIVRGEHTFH
Chain of IKZF2 (Q96SW2 whole entry): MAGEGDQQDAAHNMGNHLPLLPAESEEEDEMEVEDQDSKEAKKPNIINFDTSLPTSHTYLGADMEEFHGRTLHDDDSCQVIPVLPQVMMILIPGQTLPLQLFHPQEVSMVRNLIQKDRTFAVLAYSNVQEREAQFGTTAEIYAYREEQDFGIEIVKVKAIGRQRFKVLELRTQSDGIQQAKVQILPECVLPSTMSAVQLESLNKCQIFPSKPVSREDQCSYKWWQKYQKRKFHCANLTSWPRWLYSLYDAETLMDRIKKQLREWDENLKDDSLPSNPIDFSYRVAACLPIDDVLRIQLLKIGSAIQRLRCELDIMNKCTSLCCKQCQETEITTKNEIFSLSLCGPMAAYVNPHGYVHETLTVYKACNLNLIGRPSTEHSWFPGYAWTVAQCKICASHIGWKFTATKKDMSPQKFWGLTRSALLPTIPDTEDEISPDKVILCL
Chain of IKZF2 (Q16531 whole entry partner): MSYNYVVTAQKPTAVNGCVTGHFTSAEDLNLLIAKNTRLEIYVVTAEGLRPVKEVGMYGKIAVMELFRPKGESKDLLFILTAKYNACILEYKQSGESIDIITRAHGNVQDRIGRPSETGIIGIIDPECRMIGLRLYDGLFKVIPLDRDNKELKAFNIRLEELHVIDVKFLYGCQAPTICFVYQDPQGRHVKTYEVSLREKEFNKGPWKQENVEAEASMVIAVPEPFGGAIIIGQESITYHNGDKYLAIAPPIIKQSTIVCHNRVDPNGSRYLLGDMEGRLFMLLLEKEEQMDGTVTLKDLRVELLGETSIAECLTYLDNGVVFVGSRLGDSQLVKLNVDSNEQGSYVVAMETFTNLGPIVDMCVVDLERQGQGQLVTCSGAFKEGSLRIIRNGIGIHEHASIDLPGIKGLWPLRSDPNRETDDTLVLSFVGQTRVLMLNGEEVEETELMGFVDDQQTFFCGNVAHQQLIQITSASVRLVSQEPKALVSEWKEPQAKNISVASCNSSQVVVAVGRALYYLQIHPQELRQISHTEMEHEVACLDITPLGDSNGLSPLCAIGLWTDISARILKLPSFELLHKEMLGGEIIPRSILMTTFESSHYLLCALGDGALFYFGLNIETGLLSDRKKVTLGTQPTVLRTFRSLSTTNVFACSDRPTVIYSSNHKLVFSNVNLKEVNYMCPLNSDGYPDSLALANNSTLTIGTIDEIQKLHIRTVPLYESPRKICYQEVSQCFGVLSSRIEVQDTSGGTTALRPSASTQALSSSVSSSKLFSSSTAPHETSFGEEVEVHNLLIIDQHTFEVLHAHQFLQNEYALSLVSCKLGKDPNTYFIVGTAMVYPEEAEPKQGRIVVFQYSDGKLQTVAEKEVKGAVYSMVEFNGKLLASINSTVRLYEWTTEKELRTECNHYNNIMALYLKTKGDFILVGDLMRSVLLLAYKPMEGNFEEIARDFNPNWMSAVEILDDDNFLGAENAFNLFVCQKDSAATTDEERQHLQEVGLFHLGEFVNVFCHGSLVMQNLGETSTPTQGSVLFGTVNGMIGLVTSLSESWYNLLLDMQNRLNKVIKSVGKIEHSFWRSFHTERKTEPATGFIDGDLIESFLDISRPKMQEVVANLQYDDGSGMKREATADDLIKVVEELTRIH
For orientation: With HiBiT, luminescence reflects the tagged protein that the partner subunit can reach.

The mark [1] stands for this setting: maximum degradation at the highest concentration tested.

T1 sequence (Q13422 whole entry): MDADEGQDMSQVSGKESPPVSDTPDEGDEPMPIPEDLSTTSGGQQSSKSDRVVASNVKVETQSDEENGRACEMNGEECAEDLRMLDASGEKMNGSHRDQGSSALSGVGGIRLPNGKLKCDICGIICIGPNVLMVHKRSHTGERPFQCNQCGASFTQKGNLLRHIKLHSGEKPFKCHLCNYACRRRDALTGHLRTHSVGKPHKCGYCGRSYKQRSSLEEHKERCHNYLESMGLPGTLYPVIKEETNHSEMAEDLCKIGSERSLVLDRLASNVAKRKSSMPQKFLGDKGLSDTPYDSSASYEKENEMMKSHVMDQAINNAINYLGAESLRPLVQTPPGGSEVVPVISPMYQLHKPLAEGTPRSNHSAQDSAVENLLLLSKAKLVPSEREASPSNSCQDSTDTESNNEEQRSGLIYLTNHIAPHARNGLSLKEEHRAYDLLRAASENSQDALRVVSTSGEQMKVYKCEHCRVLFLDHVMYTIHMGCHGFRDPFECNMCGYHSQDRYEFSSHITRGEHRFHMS
T1 sequence (Q96SW2 whole entry): as the sequence (Q96SW2 whole entry) above
T1 sequence (Q16531 whole entry partner): as the sequence (Q16531 whole entry partner) above

With `O=C1CCC(N2Cc3cc(C[C@H]4CCCC[C@@H]4NC4CC5CCC(C5)C4)ccc3C2=O)C(=O)N1` (stereo partly drawn) [Example 191], the maximal degradation (Dmax) on IKZF1 (setting [1]) was found to be 30%; at IKZF2 it was 97%. Also, the figures for the DC50 on IKZF1 (HEK293 HiBiT) and on IKZF2 were 63 nM and 2 nM, respectively.
For `CC1(C)COCCC1N[C@H]1CCCC[C@@H]1Cc1ccc2c(c1)CN(C1CCC(=O)NC1=O)C2=O` (stereo partly drawn) [Example 192], the DC50 on IKZF1 (HEK293 HiBiT) was over 10000 nM. For the same compound, at IKZF2, the Dmax was found to be 94% and the DC50 was 6 nM.
For `O=C1CCC(N2Cc3cc(C[C@H]4CCCC[C@@H]4NC4CC5CCC4O5)ccc3C2=O)C(=O)N1` (stereo partly drawn) [Example 193], in that order: over 1000 nM, 96% and 7 nM.
For `O=C1CCC(N2Cc3cc(C[C@H]4CCCC[C@@H]4NC4C5CCC4COC5)ccc3C2=O)C(=O)N1` (stereo partly drawn) [Example 194], in that order: over 1000 nM, 92% and 20 nM.
For the compound `O=C1CCC(N2Cc3cc(C[C@H]4CCCC[C@@H]4NC4CCC5COC4O5)ccc3C2=O)C(=O)N1` (stereo partly drawn) [Example 195], the DC50 is over 1000 nM at IKZF1 (HEK293 HiBiT) and 9 nM at IKZF2. Moreover, the Dmax on IKZF2 amounted to 96%.
As to `O=C1CCC(N2Cc3cc(C[C@H]4CCCC[C@@H]4NC4CCCOCC4)ccc3C2=O)C(=O)N1` (stereo partly drawn) [Example 197], the results for the Dmax on IKZF1 (setting [1]) and at IKZF2 were 22% and 97%, respectively. For the same compound, the results for the DC50 at IKZF1 (HEK293 HiBiT) and at IKZF2 were 68 nM and 5 nM, respectively.
For the compound `O=C1CCC(N2Cc3cc(C[C@H]4CCCC[C@@H]4NC4C[C@H]5COC[C@H]5C4)ccc3C2=O)C(=O)N1` (stereo partly drawn) [Example 198], on IKZF1 (HEK293 HiBiT), the DC50 is over 1000 nM. Further, at IKZF2, the Dmax was 97% and the DC50 amounted to 16 nM.
The like results for `O=C1CCC(N2Cc3cc(C[C@H]4CCCC[C@@H]4NC4C5CCCC4CC5)ccc3C2=O)C(=O)N1` (stereo partly drawn) [Example 199] were, in that order, over 10000 nM, 95% and 10 nM.
The like results for `CC(N[C@H]1CCCC[C@@H]1Cc1ccc2c(c1)CN(C1CCC(=O)NC1=O)C2=O)C1CCOCC1` (stereo partly drawn) [Example 200] were, in that order, over 1000 nM, 96% and 4 nM.
For `CC(N[C@H]1CCCC[C@@H]1Cc1ccc2c(c1)CN(C1CCC(=O)NC1=O)C2=O)C1CCCC1` (stereo partly drawn) [Example 201], in that order: over 1000 nM, 96% and 7 nM.
Turning to `CC(N[C@H]1CCCC[C@@H]1Cc1ccc2c(c1)CN(C1CCC(=O)NC1=O)C2=O)C1CCCC1` (stereo partly drawn) [Example 202], the values for the DC50 at IKZF1 (HEK293 HiBiT) and at IKZF2 were over 1000 nM and 8 nM, respectively. On IKZF2, the “IKZF2 Dmax” value turned out to be 95%.
Regarding `CC(N[C@H]1CCCC[C@@H]1Cc1ccc2c(c1)CN(C1CCC(=O)NC1=O)C2=O)C1CCCCC1` (stereo partly drawn) [Example 203], the DC50 at IKZF1 (HEK293 HiBiT) is over 1000 nM; at IKZF2, 13 nM. Besides, the Dmax at IKZF2 worked out at 95%.
With `CC(CC1CC1)N[C@H]1CCCC[C@@H]1Cc1ccc2c(c1)CN(C1CCC(=O)NC1=O)C2=O` (stereo partly drawn) [Example 204], the results for the DC50 on IKZF1 (HEK293 HiBiT) and at IKZF2 were over 1000 nM and 4 nM, respectively. Moreover, the Dmax at IKZF2 is 97%.
For `CC(CC(C)(C)C)N[C@H]1CCCC[C@@H]1Cc1ccc2c(c1)CN(C1CCC(=O)NC1=O)C2=O` (stereo partly drawn) [Example 205], in that order: over 1000 nM, 3 nM and 98%.
`CC(N[C@H]1CCCC[C@@H]1Cc1ccc2c(c1)CN(C1CCC(=O)NC1=O)C2=O)C1(C)CCC1` (stereo partly drawn) [Example 207]: the DC50 on IKZF1 (HEK293 HiBiT) was over 1000 nM; at IKZF2, 2 nM. Moreover, the “IKZF2 Dmax” value at IKZF2 worked out at 94%.
On to `[2H]C1(N[C@H]2CCCC[C@@H]2Cc2ccc3c(c2F)CN(C2CCC(=O)NC2=O)C3=O)CCC2(CC2)CC1` (stereo partly drawn) [Example 210], for which the maximal degradation (Dmax) turned out to be 68% at IKZF1 (setting [1]) and 97% at IKZF2. For the same compound, the values for the DC50 on IKZF1 (HEK293 HiBiT) and at IKZF2 were 30 nM and 1 nM, respectively.
Take `[2H]C1(N[C@H]2CCCC[C@@H]2Cc2ccc3c(c2F)CN(C2CCC(=O)NC2=O)C3=O)CCCCC1` (stereo partly drawn) [Example 211]: the greatest degradation seen (Dmax) at IKZF1 (setting [1]) worked out at 37%; on IKZF2, 98%. The results for the DC50 on IKZF1 (HEK293 HiBiT) and at IKZF2 were 54 nM and 1 nM, respectively.
For `[2H]C1(N[C@H]2CCCC[C@@H]2Cc2ccc3c(c2F)CN(C2CCC(=O)NC2=O)C3=O)CCCC1` (stereo partly drawn) [Example 212], in that order: 42%, 98%, 45 nM and 1 nM.
For `[2H]C1(N[C@H]2CCCC[C@@H]2Cc2ccc3c(c2F)CN(C2CCC(=O)NC2=O)C3=O)CC2(CC2)C1` (stereo partly drawn) [Example 213], in that order: 45%, 98%, 41 nM and 2 nM.
For `[2H]C1(N[C@H]2CCCC[C@@H]2Cc2ccc3c(c2)CN(C2CCC(=O)NC2=O)C3=O)CCCCC1` (stereo partly drawn) [Example 215], in that order: 29%, 97%, 174 nM and 2 nM.
Regarding `O=C1CCC(N2Cc3cc(C[C@H]4CCCC[C@@H]4NC4CCC(C(F)F)CC4)ccc3C2=O)C(=O)N1` (stereo partly drawn) [Example 216], the Dmax came to 34% at IKZF1 (setting [1]) and 98% on IKZF2. Further, the DC50 came out at 51 nM at IKZF1 (HEK293 HiBiT) and 2 nM at IKZF2.
Take `O=C1CCC(N2Cc3cc(C[C@H]4CCCC[C@@H]4NC4CCCCC45CC5)ccc3C2=O)C(=O)N1` (stereo partly drawn) [Example 228]: on IKZF1 (HEK293 HiBiT), the DC50 was over 1000 nM. Besides, at IKZF2, the Dmax stood at 94% and the DC50 amounted to 9 nM.
`O=C1CCC(N2Cc3cc(C[C@H]4CCCC[C@@H]4NC4CCCCC45CC5)ccc3C2=O)C(=O)N1` (stereo partly drawn) [Example 229]: the DC50 on IKZF1 (HEK293 HiBiT) is over 1000 nM. At IKZF2, the DC50 stood at 8 nM and the “IKZF2 Dmax” value worked out at 97%.
`CC(N[C@H]1CCCC[C@@H]1Cc1ccc2c(c1)CN(C1CCC(=O)NC1=O)C2=O)C1(C)CC1` (stereo partly drawn) [Example 234]: the DC50 on IKZF1 (HEK293 HiBiT) is over 1000 nM; on IKZF2, 11 nM. On IKZF2, this compound gave a Dmax of 98%.
On to `CC(N[C@H]1CCCC[C@@H]1Cc1ccc2c(c1)CN(C1CCC(=O)NC1=O)C2=O)C1(C)CC1` (stereo partly drawn) [Example 235], for which, at IKZF1 (HEK293 HiBiT), the DC50 was over 1000 nM. Besides, at IKZF2, the DC50 stood at 9 nM and the “IKZF2 Dmax” value was found to be 97%.
In the case of `C[C@H]1CCCC(N[C@H]2CCCC[C@@H]2Cc2ccc3c(c2)CN(C2CCC(=O)NC2=O)C3=O)C1` (stereo partly drawn) [Example 236], the values for the maximal degradation (Dmax) at IKZF1 (setting [1]) and at IKZF2 were 34% and 98%, respectively. Moreover, the DC50 at IKZF1 (HEK293 HiBiT) was 122 nM; at IKZF2, 6 nM.
With `C[C@H]1CCCC(N[C@H]2CCCC[C@@H]2Cc2ccc3c(c2)CN(C2CCC(=O)NC2=O)C3=O)C1` (stereo partly drawn) [Example 237], the DC50 at IKZF1 (HEK293 HiBiT) was determined as 208 nM. For the same compound, the “IKZF1 Dmax” value at IKZF1 (HEK293 HiBiT, maximum degradation at the highest concentration tested) came to 39%. Besides, on IKZF2, the DC50 was determined as 2 nM and the “IKZF2 Dmax” value is reported as 96%.
In the case of `CCC(C)N[C@H]1CCCO[C@@H]1Cc1ccc2c(c1F)CN(C1CCC(=O)NC1=O)C2=O` (stereo partly drawn) [Example 304, 3-(5-(((2R,3S)-3-(sec-butylamino)tetrahydro-2H-pyran-2-yl)methyl)-4-fluoro-1-oxoisoindolin-2-yl)piperidine-2,6-dione], on IKZF1 (HEK293 HiBiT), the DC50 was over 1000 nM. Also, at IKZF2, the Dmax stood at 97% and the DC50 was determined as 3 nM.
The like results for `CC(C)C(C)N[C@H]1CCCO[C@@H]1Cc1ccc2c(c1F)CN(C1CCC(=O)NC1=O)C2=O` (stereo partly drawn) [Example 306] were, in that order, over 1000 nM, 95% and 10 nM.
For `CCC(C)N[C@H]1CCCC[C@@H]1Cc1ccc2c(c1F)CN(C1CCC(=O)NC1=O)C2=O` (stereo partly drawn) [Example 307], the greatest degradation seen (Dmax) at IKZF1 (setting [1]) was found to be 40%; at IKZF2, 96%. Moreover, the values for the DC50 at IKZF1 (HEK293 HiBiT) and on IKZF2 were 111 nM and 1 nM, respectively.
Turning to `CC(N[C@H]1CCCC[C@@H]1Cc1ccc2c(c1)CN(C1CCC(=O)NC1=O)C2=O)C1(C(F)F)CC1` (stereo partly drawn) [Example 311], at IKZF1 (HEK293 HiBiT), the DC50 was over 1000 nM. Also, at IKZF2, the Dmax worked out at 95% and the DC50 worked out at 11 nM.
Take `CC(N[C@H]1CCCC[C@@H]1Cc1ccc2c(c1)CN(C1CCC(=O)NC1=O)C2=O)C1(C(F)F)CC1` (stereo partly drawn) [Example 312]: the results for the DC50 on IKZF1 (HEK293 HiBiT) and at IKZF2 were over 1000 nM and 9 nM, respectively. Moreover, on IKZF2, the “IKZF2 Dmax” value is given as 95%.
In the case of `O=C1CCC(N2Cc3cc(C[C@H]4CC(F)(F)CC[C@@H]4NC4CCCCC4)ccc3C2=O)C(=O)N1` (stereo partly drawn) [Example 313, 3-(5-(((1S,2S)-2-(cyclohexylamino)-5,5-difluorocyclohexyl)methyl)-1-oxoisoindolin-2-yl)piperidine-2,6-dione], the DC50 on IKZF1 (HEK293 HiBiT) is over 1000 nM. Further, on IKZF2, the greatest degradation seen (Dmax) was 88% and the DC50 was determined as 27 nM.
In the case of `O=C1CCC(N2Cc3cc(C[C@H]4C=C(F)CC[C@@H]4NC4CCCCC4)ccc3C2=O)C(=O)N1` (stereo partly drawn) [Example 314, 3-(5-(((1S,6S)-6-(cyclohexylamino)-3-fluorocyclohex-2-en-1-yl)methyl)-1-oxoisoindolin-2-yl)piperidine-2,6-dione], the results for the Dmax on IKZF1 (setting [1]) and at IKZF2 were 30% and 70%, respectively. Moreover, the DC50 is 653 nM on IKZF1 (HEK293 HiBiT) and 90 nM on IKZF2.
Turning to `CC(C)N[C@H]1CCC(F)(F)C[C@@H]1Cc1ccc2c(c1)CN(C1CCC(=O)NC1=O)C2=O` (stereo partly drawn) [Example 315], at IKZF1 (HEK293 HiBiT), the DC50 was over 1000 nM. On IKZF2, the greatest degradation seen (Dmax) is 88% and the DC50 came out at 28 nM.
Turning to `CC(N[C@H]1CCCO[C@@H]1Cc1ccc2c(c1F)CN(C1CCC(=O)NC1=O)C2=O)C1COC1` (stereo partly drawn) [Example 318], at IKZF1 (HEK293 HiBiT), the DC50 is over 1000 nM. Moreover, on IKZF2, the Dmax amounted to 96% and the DC50 worked out at 20 nM.
Take `CC(N[C@H]1CCCO[C@@H]1Cc1ccc2c(c1F)CN(C1CCC(=O)NC1=O)C2=O)C1COC1` (stereo partly drawn) [Example 319]: at IKZF1 (HEK293 HiBiT), the DC50 is over 1000 nM. Besides, on IKZF2, the DC50 came out at 24 nM and the “IKZF2 Dmax” value is 95%.

As a reminder, the Dmax is the largest share of the target that was removed.

(Values after patent US11897862B2 (Gilead Sciences, Inc., priority 2022, dated 2024).)
